Measured values from US20240158750A1, “STROMA-FREE NK CELL DIFFERENTIATION FROM HUMAN PLURIPOTENT STEM CELLS” (The Children's Medical Center Corporation, priority 2021, published 2024).

Key:
[1] = tested on: MDA-MB-231 cells; details: in MDA-MB-231 cells; cited from earlier work
[2] = tested on: iPS-derived CD34+ hemogenic endothelial cells; assay: Stroma-free differentiation on DLL4-coated plates; type: cell-based, human
Description: FIG. 2 is a series of flow cytometry plot showing cells produced from a stroma-free differentiation protocol, which can be used to more specifically generate T or NK cells after 5 weeks. The culture conditions for T cells included: (i) EB-derived CD34^+ hemogenic endothelium (HE) on DLL4 coating (10 μg/ml), and (ii) IL-7 (50 ng/ml), SCF (100 ng/ml), Flt3 (100 ng/ml), and TPO (50 ng/ml, first 2 weeks). For more details concerning the stroma-free T cell differentiation protocol, see, e.g., International PCT publication WO 2021/150919, the content of which is incorporated herein by reference in its entirety. The culture conditions for NK cells included: EB-derived CD34^+ hemogenic endothelium (HE) on DLL4 coating (5 μg/ml), IL7 (10 ng/ml), SCF (50 ng/ml), and Flt3 (50 ng/ml).
Hemogenic CD34^+ endothelial cells were first derived from iPS (Example 2). The iPS-derived CD34^+ hemogenic endothelial cells were cultured on tissue culture plates coated with Notch ligands (e.g., DLL4; e.g., 5 μg/ml or 10 μg/ml in PBS, 3 hours in room temperature) using media containing a cocktail of growth factors (e.g., Flt3, SCF, IL7). […]

[3] = tested on: G9a (EHMT2); assay: Stroma-free NK cell differentiation with CRISPRi G9a (EHMT2) knockdown; type: cell-based, human; details: G9a knockdown by Dox induced CRISPRi for 14 days, representative flow cytometry plot
Source text: FIGS. 5A-5C are a series of schematics and graphs showing that G9a (also referred to herein as EHMT2) repression promoted NK cell differentiation. FIG. 5A is a schematic showing the experimental design. FIG. 5B is representative flow cytometry results showing the production of CD5-CD56+NK cells from control iPSCs or iPSCs with EHMT2 (G9a) knockdown by doxycycline (Dox) induced CRISPRi (see, e.g., SEQ ID NO: 50) for 14 days. […] FIG. 5C is a dot pot showing the frequencies of CD5-CD56+NK cells derived from control iPSCs or iPSCs with EHMT2 (G9a) knockdown (n=3, * P<0.05).
The iPSCs were then differentiated into CD34+HE cells and treated with Dox to induce G9a knockdown. The control or Dox treated cells were then differentiated into CD7+ lymphoid progenitors and eventually CD5-CD56+NK cells using the stroma-free methods described herein (see, e.g., Table 1).

COc1cc2c(NC3CCN(CC4CCCCC4)CC3)nc(N3CCCN(C(C)C)CC3)nc2cc1OCCCN1CCCCC1 [UNC0631]
IC50 [1]: 25 nM

COc1cc2c(NC3CCN(C4CCCCC4)CC3)nc(N3CCCN(C(C)C)CC3)nc2cc1OCCCN1CCCCC1 [UNC0646]
IC50 [1]: 26 nM

DLL4: Notch ligand Delta-like-4, coated on tissue culture plates
lineage outcome of differentiation ([2]; higher concentration of DLL4 coating (e.g., 10 μg/ml)): promotes T cell differentiation
lineage outcome of differentiation ([2]; lower concentration of DLL4 coating (e.g., 5 μg/ml)): facilitates the generation of CD56^+ NK cells

SEQ ID NO: 50: G9a CRISPRi gRNA: AATGGCCAAAAAGCATGTAG (chemistry not given here)
CD5-CD56+NK cells [3]: 64.7%
